Laboratory results taken from patent US20260028364A1, “CATIONIC CHROMENONES AND THEIR USE IN ONCOLOGY” (FLORATEK PHARMA S.A., priority 2022, published 2026).

Assays:
A2058 = test: Caspase-Glo 3/7 apoptosis assay, A2058; type: cell-based; details: A2058 cells, 10 μM, 24 h
Procedure: (§1) Apoptosis activity was evaluated using Caspase-Glo 3/7 Assay kit (Promega-G8091) according to the manufacturer's instructions. Cells were grown as above and harvested from exponential phase cultures, counted and plated in 96 black well flat-bottom microtiter plates at a cell density depending on the cell line's growth rate (3,000-10,000 cells/well depending on the cell line's growth rate). Following an overnight incubation, compounds were added to the cell plates at various concentrations (highest at […]) with the DMSO concentration maintained at 0.1% for a 24 h period treatment. 100 μL of Caspase-Glo 3/7 Reagent was added to each well of 96-well plate containing 100 μL culture medium, and after 30 min at room temperature, luminescence was measured with the microplate luminometer (EnVision Perkin Elmer). The induced relative Caspase 3/7 activity of the tested compounds was determined by the following formula: Relative Caspase 3/7 activity (fold increase)=(RLU compound−RLU blank)/(RLU control−RLU blank).

[1] = system: A2058 melanoma tumor cells; test: In vivo tumour inhibition, A2058 melanoma xenograft; parameters: species or system Balb-c/nude mouse
Procedure: The A2058 tumor cells were maintained in vitro in DMEM medium supplemented with 10% fetal bovine serum and 1% Anti-Anti at 37° C. in an atmosphere of 5% CO2 in air. The tumor cells were routinely subcultured twice weekly.
Each Balb-c/nude mouse was inoculated subcutaneously at the right flank with A2058 melanoma tumor cells (5×10^6+Matrigel) in 0.2 ml of PBS for tumor development. 10 animals per group were randomized when the average tumor volume reached 74 mm^3. Test compounds were prepared as DMSO stocks and diluted in the injection vehicle before administration. The treatment was administered every other day (QOD) as a peritumoral injection. Vehicle composition was 4% DMSO, 5% ethanol, 20% PEG200, 71% saline. Dosing volume for all groups: 5 mL/kg.
Tumor volume was measured twice weekly in two dimensions using a caliper, and the volume was expressed in mm^3 using the formula: V=0.5a×b^2 where a and b are the long and short diameters of the tumor, respectively. The tumor size was then used for calculations of T/C value: The T/C value (in percent) is an indication of antitumor effectiveness; T and Care the mean volumes of the treated and control groups, respectively, on a given day.
One-way ANOVA was performed to compare tumor volume among treated groups and vehicle group, all data were analyzed using GraphPad Prism 5.0. p<0.05 was considered to be statistically significant.

MDA-MB-468 = test: Caspase-Glo 3/7 apoptosis assay, MDA-MB-468; type: cell-based; details: MDA-MB-468 cells, 10 μM, 24 h
Procedure: as §1

[2] = system: Toll-like Receptor (TLR4); test: SelectScreen CellSensor pathway inhibition, Toll-like Receptor (TLR4); type: cell-based; details: Homo sapiens; NFkB-bla THP-1, stimulus LPS
Procedure: Inhibition of various cellular pathways known to be involved in malignancy was tested using the SelectScreen Cell-based Pathway Profiling GeneBLAzer™ cell signaling pathway specific CellSensor™ cell lines ((Thermo Fisher). The assay is based on a beta-lactamase reporter activity which is modulated and can be measured quantitatively and selectively with the LiveBLAzer™-FRET B/G Loading Substrate. SelectScreen Cell-Based Pathway Profiling Service uses XLfit from IDBS. The dose response curve is curve fit to model number 205 (sigmoidal dose-response model). Custom logic was built by Thermo Fisher for the data analysis tool to address the different compound characteristics that can be observed with functional assays.
Toll-like Receptor (TLR4)—NFKB-bla THP-1—Inhibitor Screen, Activated by LPS
NFKB-bla THP-1 cells are thawed and resuspended in Assay Media (RPMI, 0.5% dialyzed FBS, 0.1 mM NEAA, 1 mM Sodium Pyruvate, 100 U/mL/[…] Pen/Strep) to a concentration of 625,000 cells/mL. 32 μL of cell suspension is added to each well of a 384-well TC-Treated assay plate. Cells in Assay Media are incubated for 16-24 hours in the plate at 37° C./5% CO2 in a humidified incubator. […] The plate is read on a fluorescence plate reader.

SK-Mel-5 = test: Caspase-Glo 3/7 apoptosis assay, SK-Mel-5; type: cell-based; details: SK-Mel-5 cells, 1 μM, 24 h
Procedure: as §1

CHP-134 = test: Caspase-Glo 3/7 apoptosis assay, CHP-134; type: cell-based; details: CHP-134 cells, 3.16 μM, 24 h
Procedure: as §1

DMS-114 = test: Caspase-Glo 3/7 apoptosis assay, DMS-114; type: cell-based; details: DMS-114 cells, 10 μM, 24 h
Procedure: as §1

[3] = 16 mg/kg peritumoral QOD, 6 injections, day 20 after treatment start

SMILES: COc1ccc2c(=O)c(-c3ccc(CCCC[P+](c4ccccc4)(c4ccccc4)c4ccccc4)cc3)coc2c1OC.[Br-] [SND470, (4-(4-(7,8-Dimethoxy-4-oxo-4H-chromen-3-yl)phenyl)butyl)triphenylphosphonium bromide]
- Fold activation of Caspase 3/7 (A2058): 3.87 Fold
- T/C [1, 3]: 39.2%
- TGI [1, 3]: 62.8%
- Tumor Volume ([1]; 16 mg/kg peritumoral QOD, 6 injections, day 20 after treatment start, mean ± SEM): 886 ± 127 mm^3
- activity in inhibiting A2058 melanoma cell line in vivo ([1]; nude mouse xenograft model of melanoma): significant activity
- Fold activation of Caspase 3/7 (MDA-MB-468): 3.15 Fold
- IC50 [2]: 560 nM
- Fold activation of Caspase 3/7 (SK-Mel-5): 7.22 Fold
- Fold activation of Caspase 3/7 (CHP-134): 7.02 Fold
- Fold activation of Caspase 3/7 (DMS-114): 3.32 Fold
